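48-hour exposure; five concentrations; linearly interpolated endpoints. Abbreviation: GI50, concentration required for 50% inhibition of growth.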 Calls of active or inactive are those of the source. Rule as the data show it: active = GI50 up to about 1.1 µM and inactive = higher.
How the values were obtained:
Assay in all cases: inhibition of tumour cell growth, NCI panel, 48 h
HCT-15 = system: HCT-15
EKVX = system: EKVX
SF-268 = system: SF-268
CAKI-1 = system: CAKI-1
HL-60 = system: HL-60
NCI-H23 = system: NCI-H23
RXF 393 = system: RXF 393
NCI-H460 = system: NCI-H460
TK-10 = system: TK-10
IGROV-1 = system: IGROV-1
M14 = system: M14
A498 = system: A498
MOLT-4 = system: MOLT-4
SN12C = system: SN12C
A549 = system: A549
MDA-MB-231 = system: MDA-MB-231
MDA-MB-435 = system: MDA-MB-435
DU-145 = system: DU-145
T47D = system: T47D

Row | Compound | GI50 (HCT-15) [µM] | GI50 (EKVX) | GI50 (SF-268) | GI50 (CAKI-1) | GI50 (HL-60) | GI50 (NCI-H23) | GI50 (RXF 393) | GI50 (NCI-H460) | GI50 (TK-10) | GI50 (IGROV-1) | GI50 (M14) | GI50 (A498) | GI50 (MOLT-4) | GI50 (SN12C) | GI50 (A549) | GI50 (MDA-MB-231) | GI50 (MDA-MB-435) | GI50 (DU-145) | GI50 (T47D)
1 | CC(=O)OC1CCCn2c1nc1c2C(=O)C(C)=C(N2CC2)C1=O (centres undefined) | 0.207 | 0.721 µM (active) | 0.251 µM (active) | 0.296 µM (active) | 2.41 µM (inactive) | 0.0923 µM (active) | 0.284 µM (active) | 0.0798 µM (active) | 2.75 µM (inactive) | 0.962 µM (active) | 0.163 µM (active) | 0.161 µM (active) | 19.4 µM (inactive) | 0.308 µM (active) | 0.316 µM (active) |  |  |  | 
2 | CCSc1c2ccccc2c(-c2nc(F)nc(F)n2)n1CCc1ccccc1 | > 100 | > 100 µM (inactive) | > 100 µM (inactive) | > 100 µM (inactive) | > 100 µM (inactive) | > 100 µM (inactive) | > 100 µM (inactive) | > 100 µM (inactive) | > 100 µM (inactive) |  | > 100 µM (inactive) | 86.5 µM (inactive) | 56.4 µM (inactive) | > 100 µM (inactive) | > 100 µM (inactive) |  |  |  | 
3 | COC(=O)CCC(=O)N1CC1C (centres undefined) | > 100 | > 100 µM (inactive) | > 100 µM (inactive) | > 100 µM (inactive) | > 100 µM (inactive) | > 100 µM (inactive) | > 100 µM (inactive) | > 100 µM (inactive) | > 100 µM (inactive) | > 100 µM (inactive) | > 100 µM (inactive) | > 100 µM (inactive) | > 100 µM (inactive) | > 100 µM (inactive) | > 100 µM (inactive) |  |  |  | 
4 | BrC12c3ccccc3Sc3ccccc3C1(Br)c1ccccc12 (centres undefined) | 17.8 |  | 32.4 µM (inactive) | 26.1 µM (inactive) | 5.21 µM (inactive) |  | 34.2 µM (inactive) | 40.2 µM (inactive) | 35.6 µM (inactive) | 27 µM (inactive) | 15.2 µM (inactive) | 22.9 µM (inactive) | 10.7 µM (inactive) | 25.8 µM (inactive) | 27.7 µM (inactive) |  |  |  | 
5 | CCOc1ccc(NC(=O)C(=O)NO)cc1 | > 100 | > 100 µM (inactive) | > 100 µM (inactive) | > 100 µM (inactive) | > 100 µM (inactive) | > 100 µM (inactive) | > 100 µM (inactive) | > 100 µM (inactive) | > 100 µM (inactive) | > 100 µM (inactive) | > 100 µM (inactive) | > 100 µM (inactive) | > 100 µM (inactive) | > 100 µM (inactive) | > 100 µM (inactive) |  |  |  | 
6 | COC(=O)C1Cc2c([nH]c3ccccc23)-c2[nH]c3ccccc3c2CC(NC(C)=O)C(=O)N2CCCC2C(=O)N1 (centres undefined) | > 100 | > 100 µM (inactive) | > 100 µM (inactive) | > 100 µM (inactive) |  | > 100 µM (inactive) | > 100 µM (inactive) | > 100 µM (inactive) | > 100 µM (inactive) | 24.8 µM (inactive) |  |  | 66.7 µM (inactive) | > 100 µM (inactive) | > 100 µM (inactive) | > 100 µM (inactive) | > 100 µM (inactive) | > 100 µM (inactive) | > 100 µM (inactive)
7 | Cc1cc(O)nc(CNC(=O)c2cccc3ccccc23)n1 | > 100 | > 100 µM (inactive) | > 100 µM (inactive) | > 100 µM (inactive) | > 100 µM (inactive) | > 100 µM (inactive) | > 100 µM (inactive) | > 100 µM (inactive) | > 100 µM (inactive) | > 100 µM (inactive) | > 100 µM (inactive) | > 100 µM (inactive) | > 100 µM (inactive) | > 100 µM (inactive) | > 100 µM (inactive) |  |  |  | 
8 | c1ccc2c(CNCCCCCCNCc3cccc4ccccc34)cccc2c1 | 6.75 | 13.2 µM (inactive) | 11.9 µM (inactive) | 7.38 µM (inactive) | 1.46 µM (inactive) | 16.4 µM (inactive) | 2.19 µM (inactive) | 1.81 µM (inactive) | 12.6 µM (inactive) | 16.2 µM (inactive) | 1.79 µM (inactive) | 18.7 µM (inactive) | 3.04 µM (inactive) | 12.4 µM (inactive) | 17.8 µM (inactive) |  |  |  | 
9 | O=c1[nH]c(=O)n(C2OC(COP(=O)(O)OP(=O)(O)O)C(O)C2O)cc1F (centres undefined) | 0.446 | 2.44 µM (inactive) | 0.298 µM (active) | 0.368 µM (active) | 7.43 µM (inactive) | 2.08 µM (inactive) | 2.57 µM (inactive) | 0.0453 µM (active) | 15.6 µM (inactive) | 11.8 µM (inactive) | 1.55 µM (inactive) | 6.25 µM (inactive) | 0.877 µM (active) | 0.916 µM (active) | 0.119 µM (active) |  |  |  | 
10 | COC1C2C[C@@H](O)CCC2C(C(=O)OCCl)C[C@H]1O (some centres undefined) | > 100 |  | > 100 µM (inactive) | > 100 µM (inactive) | > 100 µM (inactive) |  | > 100 µM (inactive) | > 100 µM (inactive) | > 100 µM (inactive) | > 100 µM (inactive) | > 100 µM (inactive) | > 100 µM (inactive) | > 100 µM (inactive) | > 100 µM (inactive) | > 100 µM (inactive) |  |  |  | 
11 | COCC12CC(CC1=O)C1C2ON2c3ccccc3C(=O)C12c1ccccc1 (centres undefined) | > 100 | > 100 µM (inactive) | > 100 µM (inactive) |  | 76.4 µM (inactive) | > 100 µM (inactive) | 33.3 µM (inactive) |  |  | > 100 µM (inactive) | > 100 µM (inactive) | > 100 µM (inactive) | 52.5 µM (inactive) | > 100 µM (inactive) | > 100 µM (inactive) |  |  |  | 
12 | O=C(c1ccccc1)c1ccc(COc2ccc(C(c3c(O)c4ccccc4oc3=O)c3c(O)c4ccccc4oc3=O)cc2)cc1 | 37.3 | 19.8 µM (inactive) | 31.9 µM (inactive) | 22.8 µM (inactive) |  | 17.4 µM (inactive) | 19 µM (inactive) | 19.9 µM (inactive) | 17.1 µM (inactive) | 13.5 µM (inactive) |  |  | 18.7 µM (inactive) | 43.8 µM (inactive) | 26.2 µM (inactive) | 34.3 µM (inactive) | 20.2 µM (inactive) | 59.8 µM (inactive) | 20.5 µM (inactive)
13 | CC#CCCN(CC#N)Cc1ccccc1 | > 100 | > 100 µM (inactive) | > 100 µM (inactive) | > 100 µM (inactive) | > 100 µM (inactive) | > 100 µM (inactive) | > 100 µM (inactive) | > 100 µM (inactive) | > 100 µM (inactive) | > 100 µM (inactive) | > 100 µM (inactive) | 20.4 µM (inactive) | > 100 µM (inactive) | > 100 µM (inactive) | > 100 µM (inactive) | > 100 µM (inactive) | > 100 µM (inactive) | > 100 µM (inactive) | > 100 µM (inactive)
14 | Nc1nc(N)c2ncn(-c3ccc(Cl)cc3)c2n1 | 24.8 | 10.1 µM (inactive) |  | 20.4 µM (inactive) | 82 µM (inactive) | 61 µM (inactive) | 19.3 µM (inactive) |  | 20 µM (inactive) | 6.97 µM (inactive) | 39 µM (inactive) | 21.8 µM (inactive) |  | 36.6 µM (inactive) | 37 µM (inactive) | 63.2 µM (inactive) | 87.3 µM (inactive) | 25 µM (inactive) | 25.5 µM (inactive)
15 | Cc1c(Cl)cccc1NC(=O)C(=O)C1C(=O)NC(=O)NC1=O | > 100 | > 100 µM (inactive) | > 100 µM (inactive) | > 100 µM (inactive) | > 100 µM (inactive) | > 100 µM (inactive) | > 100 µM (inactive) | > 100 µM (inactive) | > 100 µM (inactive) | > 100 µM (inactive) | > 100 µM (inactive) | > 100 µM (inactive) | > 100 µM (inactive) | > 100 µM (inactive) | > 100 µM (inactive) |  |  |  | 
16 | CSc1ccc(NC(=O)C2c3[nH]c4ccccc4c3C3CCC(C(C)(C)C)CC3C2C(=O)O)cc1 (centres undefined) | 29.2 | 24.3 µM (inactive) | 18.9 µM (inactive) |  | 9.42 µM (inactive) | 20.1 µM (inactive) | 20 µM (inactive) |  |  | 17 µM (inactive) | 18.4 µM (inactive) | 17.9 µM (inactive) | 15.1 µM (inactive) | 18.6 µM (inactive) | 15.2 µM (inactive) |  |  |  | 
17 | CCC12CN(C(=O)OC)C3C(Br)C1CCC(=O)C32 (centres undefined) | > 100 | > 100 µM (inactive) | > 100 µM (inactive) | > 100 µM (inactive) | > 100 µM (inactive) | > 100 µM (inactive) | > 100 µM (inactive) | > 100 µM (inactive) | > 100 µM (inactive) | > 100 µM (inactive) | > 100 µM (inactive) | > 100 µM (inactive) | > 100 µM (inactive) |  | > 100 µM (inactive) | > 100 µM (inactive) | > 100 µM (inactive) | > 100 µM (inactive) | > 100 µM (inactive)
18 | CNC(=O)N1CN(c2ccccc2)C2(CCN(CCCC(=O)c3ccc(F)cc3)CC2)C1=O | 15.5 | 12.8 µM (inactive) | 39.1 µM (inactive) | 24.8 µM (inactive) | 15.2 µM (inactive) | 23.4 µM (inactive) | 20.5 µM (inactive) |  | 18 µM (inactive) | 19.5 µM (inactive) | 16.5 µM (inactive) |  | 4.57 µM (inactive) | 21.4 µM (inactive) | 45.1 µM (inactive) | 25.2 µM (inactive) |  | 11.3 µM (inactive) | 4.98 µM (inactive)
19 | C[S+]([O-])c1ccc(COP(N)(=O)N(CCCl)CCCl)cc1 (centres undefined) |  | > 100 µM (inactive) | > 100 µM (inactive) | > 100 µM (inactive) | > 100 µM (inactive) | > 100 µM (inactive) | > 100 µM (inactive) | > 100 µM (inactive) | > 100 µM (inactive) | > 100 µM (inactive) | > 100 µM (inactive) | > 100 µM (inactive) | > 100 µM (inactive) | > 100 µM (inactive) | > 100 µM (inactive) |  |  |  | 

From ChEMBL document CHEMBL1201862, “PubChem BioAssay data set” (2004)
